# Source: patent publication US9211313B2, “Methods and compound to inhibit Ca2+ permeable cation conductance” (priority 2011, dated 2015)
# Columns and labels:
# [1] = test system: Berkeley sickle mouse red cells; assay: Fluo-3 fluorescence measurement of [Ca2+]i during deoxygenation, Berkeley cells; type: cell-based; conditions: 1 μM bath preincubation
# Description: (§1) Blood was withdrawn by cardiac puncture or from the tail vein of C57B16/J wildtype mice, SAD sickle mice, or Berkeley sickle mice into heparinized syringes by IACUC-approved protocols of Beth Israel Deaconess Medical Center. Buffy coat-depleted cells were washed 5 times in standard mouse red cell wash solution containing (in mM) 172 choline Cl, 10 sucrose, 10 Na Tris-MOPS, pH 7.4, resuspended in storage solution, and kept at 4° C. until use.
# Fluorescence measurements of cytosolic [Ca^2+] […]
# Measurement of relative changes in [Ca^2+]i by Fluo-3 fluorescence emission was previously validated in intact human (Yang et al. 2000, Blood, 95(7):2421-2425; Andrews et al. 2002, Blood, 199(9):3392-3399) and mouse red cells (Akel et al. 2007, Amer. J. Physiol., 292(5):C1759-1767). […] Fluorescence emission (proportional to [Ca^2+]i) from a 535ds20 bandpass filter was collected from all attached single cells within the arbitrarily selected visual field. […]
# Fluo-3 fluorescence from attached cells on each coverslip was recorded 60 sec in room air and then for 10 min after onset of perfusion chamber flushing with humidified 100% N2. […] The y-axis value of 0% change in Fluo-3 fluorescence intensity represented mean intensity recorded from all cells within the coverslip visual field during the 60 sec prior to deoxygenation.
# [2] = test system: SAD sickle mouse red cells; assay: Fluo-3 fluorescence measurement of [Ca2+]i during deoxygenation, SAD cells; type: cell-based; conditions: 1 μM; SAD red cells
# Description: as §1
# Fluorescence measurements of cytosolic [Ca^2+] ([Ca^2+]i): After removal of plasma and buffy coat by aspiration, human or mouse red cells were washed three times at room temperature and suspended in modified Hank's solution containing (in mM), 137 NaCl, 5.4 KCl, 1 CaCl2, 1 MgCl2, 0.8 NaK phosphate, 5.6 glucose, and 10 Na HEPES, pH 7.4. Dilute cell suspensions were settled on polylysine-coated coverslips forming the bottom of an open perfusion chamber (2.5 cm diameter, 1 cm depth) and washed again 3 times.
# Measurement of relative changes in [Ca^2+]i by Fluo-3 fluorescence emission was previously validated in intact human (Yang et al. 2000, Blood, 95(7):2421-2425; Andrews et al. 2002, Blood, 199(9):3392-3399) and mouse red cells (Akel et al. 2007, Amer. J. Physiol., 292(5):C1759-1767). Attached red cells were loaded in the dark with the fluorescent non-ratiometric Ca^2+ indicator Fluo-3-AM (10 μM, Molecular Probes, Eugene, Oreg.) at 37° C. for 1 hr, then washed and incubated 15 min further to allow de-esterification of intracellular dye. The open perfusion chamber containing dye-loaded cells was mounted on an Olympus IMT-2 inverted epifluorescence microscope equipped with CoolSNAP CCD camera (Photometrics, Tucson, Ariz.). Fluo-3 in cells imaged through a 60× objective was excited by mercury-xenon illumination passed through a 495ds20 filter. Fluorescence emission (proportional to [Ca^2+]i) from a 535ds20 bandpass filter was collected from all attached single cells within the arbitrarily selected visual field. Emission image acquisition was controlled by a Metafluor digital imaging system (Universal Imaging, West Chester, Pa.).
# Fluo-3 fluorescence from attached cells on each coverslip was recorded 60 sec in room air and then for 10 min after onset of perfusion chamber flushing with humidified 100% N2. The normalized increase in Fluo-3 fluorescence in SS cells subjected to this deoxygenation procedure was indistinguishable from that observed during superfusion of cells in a closed perfusion chamber via syringe pump with bath previously bubbled for 60 min with 100% N2 (n=62 cells from 2 SS patients, not shown). The y-axis value of 0% change in Fluo-3 fluorescence intensity represented mean intensity recorded from all cells within the coverslip visual field during the 60 sec prior to deoxygenation.
# [3] = test system: mechanosensitive channel (MSC); conditions: previously shown; cited from earlier work
substance,measurement,setting,value
Grammastola spatulata mechanotoxin 4 (GCLEFWWKCNPNDDKCCRPKLKCSKLFKLCNFSF; listed as Grammastola spatulata) [GsMTx-4],effect on deoxygenation-increased [Ca2+]i,[1],inhibited nearly completely
same,effect on deoxygenation-increased [Ca2+]i,[1]; listed as GsMtx-4,prevented
same,effect on increased [Ca2+]i accompanying deoxygenation,[2],completely inhibited
same,effect on mechanosensitive channel (MSC) activity,[3],block
